What was measured:
Assay in all cases: relative viability (nuclei count vs DMSO), 5 days (fraction); higher = more cells survive
[1] = compound: C1=CC2=NC=CN=C2C=C1/C=C/3\C(=O)NC(=O)S3 + COc1cccc2cc(-c3nc([C@H]4CC[C@H](C(=O)O)CC4)n4ncnc(N)c34)[nH]c12 [OSI-027] (partner 0.5 µM)
How it was run: (§1)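 Relative viability divides the nuclei count in treated wells by that in vehicle wells. Lung cancer cell lines were seeded in 1536-well plates, dosed by pin tool the next day, and fixed and stained after 5 days in one step with final 0.05% Triton X-100, 1% formaldehyde and 1 ug/ml Hoechst. Dosing was a single drug or a fixed anchor-drug dose plus five library-drug doses (not always all listed) in √10 steps, and values are medians of duplicate plates imaged at 4×.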

[2] = compound: C1=CC2=NC=CN=C2C=C1/C=C/3\C(=O)NC(=O)S3 + C[C@@H](Oc1cc(-c2cnn(C3CCNCC3)c2)cnc1N)c1c(Cl)ccc(F)c1Cl [Crizotinib] (partner 1 µM)
How it was run: as §1

[3] = compound: C1=CC2=NC=CN=C2C=C1/C=C/3\C(=O)NC(=O)S3 + Nc1ncn([C@H]2C[C@H](O)[C@@H](CO)O2)c(=O)n1 [Decitabine] (partner 2 µM)
How it was run: as §1

BGJ398 + OSI-027 = compound: CCN1CCN(c2ccc(Nc3cc(N(C)C(=O)Nc4c(Cl)c(OC)cc(OC)c4Cl)ncn3)cc2)CC1 [BGJ398] + COc1cccc2cc(-c3nc([C@H]4CC[C@H](C(=O)O)CC4)n4ncnc(N)c34)[nH]c12 [OSI-027] (partner 0.5 µM)
How it was run: as §1

Cell Line | relative viability ([1]; first compound 0.02 µM) | relative viability ([1]; first compound 0.06325 µM) | relative viability ([1]; first compound 0.2 µM) | relative viability ([1]; first compound 0.6325 µM) | relative viability ([1]; first compound 2 µM) | relative viability ([2]; first compound 0.02 µM) | relative viability ([2]; first compound 0.06325 µM) | relative viability ([2]; first compound 0.2 µM) | relative viability ([2]; first compound 0.6325 µM) | relative viability ([2]; first compound 2 µM) | relative viability ([3]; first compound 0.02 µM) | relative viability ([3]; first compound 0.06325 µM) | relative viability ([3]; first compound 0.2 µM) | relative viability ([3]; first compound 0.6325 µM) | relative viability ([3]; first compound 2 µM) | relative viability (BGJ398 + OSI-027; first compound 0.01 µM) | relative viability (BGJ398 + OSI-027; first compound 0.03162 µM) | relative viability (BGJ398 + OSI-027; first compound 0.1 µM) | relative viability (BGJ398 + OSI-027; first compound 0.3162 µM) | relative viability (BGJ398 + OSI-027; first compound 1 µM)
NCI-H1975 | 0.708 | 0.805 | 0.808 | 0.619 | 0.417 | 1.02 | 1.01 | 0.937 | 1.03 | 0.97 | 0.362 | 0.359 | 0.436 | 0.37 | 0.359 | 0.71 | 0.923 | 0.736 | 0.629 | 0.646
CAL-12T | 0.489 | 0.648 | 0.741 | 0.542 | 0.33 | 0.572 | 0.802 | 0.901 | 0.661 | 0.683 | – | – | – | – | – | 0.539 | 0.773 | 0.83 | 0.673 | 0.491
NCI-H1623 | 0.411 | 0.415 | 0.419 | 0.421 | 0.253 | – | – | – | – | – | – | – | – | – | – | 0.45 | 0.384 | 0.414 | 0.386 | 0.452
HCC-44 | 0.775 | 0.445 | 0.656 | 0.463 | 0.225 | 0.721 | 0.808 | 0.807 | 0.836 | 0.575 | 0.872 | 1.07 | 0.942 | 0.961 | 0.843 | 0.6 | 0.591 | 0.598 | 0.51 | 0.473
EKVX | 0.69 | 0.405 | 0.683 | 0.683 | 0.408 | 0.933 | 0.905 | 0.975 | 0.833 | 0.898 | 0.258 | 0.399 | 0.287 | 0.337 | 0.373 | 0.628 | 0.679 | 0.72 | 0.703 | 0.69
NCI-H1651 | 0.711 | 0.723 | 0.794 | 0.658 | 0.527 | 0.886 | 0.677 | 0.865 | 0.825 | 0.842 | 0.56 | 0.424 | 0.651 | 0.576 | 0.552 | 0.562 | 0.661 | 0.728 | 0.635 | 0.709
NCI-H1944 | 0.412 | 0.395 | 0.427 | 0.385 | 0.258 | 1.07 | 1.06 | 1.01 | 0.993 | 1.1 | 0.364 | 0.386 | 0.432 | 0.423 | 0.462 | 0.364 | 0.425 | 0.436 | 0.388 | 0.329
NCI-H1703 | – | – | – | – | – | 0.638 | 0.701 | 0.656 | 0.811 | 0.674 | – | – | – | – | – | – | – | – | – | –
Calu-6 | – | – | – | – | – | 0.781 | 0.744 | 0.758 | 0.704 | 0.781 | – | – | – | – | – | – | – | – | – | –
EBC-1 | – | – | – | – | – | 0.17 | 0.217 | 0.21 | 0.178 | 0.171 | – | – | – | – | – | – | – | – | – | –
SW 1573 | 0.63 | 0.946 | 0.725 | 0.532 | 0.312 | 0.729 | 0.816 | 0.825 | 0.831 | 0.742 | 0.506 | 0.65 | 0.603 | 0.544 | 0.367 | 0.611 | 0.766 | 0.703 | 0.572 | 0.734
A-427 | 0.476 | 0.55 | 0.54 | 0.435 | 0.365 | 0.848 | 0.792 | 0.939 | 0.866 | 0.843 | 0.541 | 0.583 | 0.55 | 0.538 | 0.491 | 0.375 | 0.365 | 0.309 | 0.235 | 0.285
NCI-H2347 | 0.505 | 0.306 | 0.412 | 0.5 | 0.276 | 0.679 | 0.645 | 0.672 | 0.717 | 0.916 | 0.631 | 0.829 | 0.631 | 0.586 | 0.546 | 0.228 | 0.557 | 0.447 | 0.413 | 0.434
NCI-H1355 | 0.383 | 0.338 | 0.402 | 0.396 | 0.258 | 0.865 | 1.03 | 1.1 | 1.02 | 0.976 | 0.348 | 0.353 | 0.357 | 0.367 | 0.33 | 0.356 | 0.408 | 0.428 | 0.413 | 0.315
NCI-H358 | 0.869 | 0.753 | 0.768 | 0.623 | 0.228 | 0.732 | 0.568 | 0.561 | 0.551 | 0.573 | 0.227 | 0.22 | 0.221 | 0.268 | 0.182 | 0.611 | 0.793 | 0.81 | 0.798 | 1
PC-3 [JPC-3] | 0.711 | 0.777 | 0.783 | 0.767 | 0.636 | 0.954 | 1.01 | 0.944 | 1.01 | 1.01 | 0.785 | 0.911 | 0.822 | 0.801 | 0.868 | 0.738 | – | 0.76 | 0.578 | 0.676
NCI-H2228 | 0.665 | 0.581 | 0.525 | 0.661 | 0.335 | 0.407 | 0.433 | 0.587 | 0.294 | 0.428 | – | – | – | – | – | 0.525 | 0.535 | 0.67 | 0.501 | 0.717
HOP-62 | 0.742 | 1.02 | 0.833 | 0.827 | 0.607 | 1.1 | 0.953 | 1.03 | 0.93 | 0.911 | 0.188 | 0.278 | 0.215 | 0.191 | 0.254 | 0.792 | 0.986 | 0.916 | 0.83 | 0.889
HARA | 0.482 | 0.396 | 0.586 | 0.43 | 0.195 | 0.973 | 1.06 | 1.09 | 1.01 | 1.21 | 0.537 | 0.587 | 0.498 | 0.614 | 0.63 | 0.422 | 0.32 | 0.506 | 0.358 | 0.439

From the supplement of paper PMC10307832
